Source: patent US10125126B2, “N-cycloalkyl-N-[(heterocyclylphenyl)methylene]-(thio)carboxamide derivatives” (BAYER CROPSCIENCE AG, priority 2012, dated 2018)

Test system: Sphaerotheca fuliginea
Assay: In vivo preventive test on Sphaerotheca fuliginea (powdery mildew on cucurbits)
Conditions: 100 ppm of active ingredient; gherkin plants; 12 days after contamination
Method: In Vivo Preventive Test on Sphaerotheca fuliginea (Powdery Mildew on Cucurbits) […] Gherkin plants (“Vert petit de Paris” variety), sown in starter cups on a 50/50 peat soil-pozzolana substrate and grown at 24° C., are treated at the Z11 cotyledon stage by spraying with the active ingredient prepared as described above. Plants, used as controls, are treated with the mixture of acetone/tween/DMSO/water not containing the active material. After 24 hours, the plants are contaminated by spraying the cotyledons with an aqueous suspension of Sphaerotheca fuliginea spores (100 000 spores per mL). The spores are collected from infected plants. […] Grading (% of efficacy) is carried out 12 days after the contamination, in comparison with the control plants.

Point of comparison: `Cc1ccc(-c2coc3ccccc23)c(CN(C(=O)c2c(C(F)F)nn(C)c2F)C2CC2)c1` [I.134], Efficacy 90%. Against it:
- Cn1nc(C(F)F)c(C(=O)N(Cc2cc(F)ccc2C2(C)CO2)C2CC2)c1F (centres unmarked) [I.7] — higher, 94%
- Cn1nc(C(F)F)c(C(=O)N(Cc2cc(-c3cccs3)ccc2Cl)C2CC2)c1F [I.83] — higher, 98%
- Cn1nc(C(F)F)c(C(=O)N(Cc2cc(-c3ccsc3)ccc2Cl)C2CC2)c1F [I.95] — higher, 98%

Same assay, conditions: 500 ppm of active ingredient; gherkin plants; 12 days after contamination

Point of comparison: `Cn1nc(C(F)F)c(C(=O)N(Cc2cc(Cl)ccc2-c2ccsc2)C2CC2)c1F` [I.66], Efficacy 95%. Against it:
- Cc1ccc(C2(C)CO2)c(CN(C(=O)c2c(C(F)F)nn(C)c2F)C2CC2)c1 (centres unmarked) [I.5] — higher, 100%
- Cn1nc(C(F)F)c(C(=O)N(Cc2cc(F)ccc2-c2ccoc2)C2CC2)c1F [I.27] — higher, 100%
- Cn1ccc(-c2ccc(F)cc2CN(C(=O)c2c(C(F)F)nn(C)c2F)C2CC2)c1 [I.47] — lower, 94%
- Cn1nc(C(F)F)c(C(=O)N(Cc2ccccc2-c2ccsc2)C2CC2)c1F [I.67] — higher, 100%
- Cn1nc(C(F)F)c(C(=S)N(Cc2ccccc2-c2ccsc2)C2CC2)c1F [I.73] — higher, 100%
- Cn1nc(C(F)F)c(C(=S)N(Cc2ccccc2-c2cccs2)C2CC2)c1F [I.75] — lower, 90%
- CC1CC1N(Cc1ccccc1-c1ccsc1)C(=O)c1c(C(F)F)nn(C)c1F (centres unmarked) [I.86] — higher, 98%

Test system: Uromyces appendiculatus
Assay: In vivo preventive test on Uromyces appendiculatus (bean rust)
Conditions: 100 ppm of active ingredient; bean plants; 11 days after contamination
Method: In Vivo Preventive Test on Uromyces appendiculatus (Bean Rust) […] Bean plants (“Saxa” variety), sown in starter cups on a 50/50 peat soil pozzolana substrate and grown at 24° C., are treated at the 2 leaf stage (9 cm height) by spraying with the active ingredient prepared as described above. Plants, used as controls, are treated with the mixture of acetone/tween/DMSO/water not containing the active material. After 24 hours, the plants are contaminated by spraying the leaves with an aqueous suspension of Uromyces appendiculatus spores (150 000 spores per mL). The spores are collected from infected plants and are suspended in water containing 2.5 mL/L of Tween 80 at 10%. […] Grading (% of efficacy) is carried out 11 days after the contamination, in comparison with the control plants.

Point of comparison: `Cn1nc(C(F)F)c(C(=O)N(Cc2cc(-c3cccs3)ccc2Cl)C2CC2)c1F` [I.83], Efficacy 80%. Against it:
- Cn1nc(C(F)F)c(C(=O)N(Cc2cc(F)ccc2C2(C)CO2)C2CC2)c1F (centres unmarked) [I.7] — higher, 100%
- Cc1ccc(-c2coc3ccccc23)c(CN(C(=O)c2c(C(F)F)nn(C)c2F)C2CC2)c1 [I.134] — lower, 77%

Same assay, conditions: 500 ppm of active ingredient; bean plants; 11 days after contamination

Point of comparison: `Cn1nc(C(F)F)c(C(=S)N(Cc2ccccc2-c2ccsc2)C2CC2)c1F` [I.73], Efficacy 100%. Against it:
- Cn1nc(C(F)F)c(C(=O)N(Cc2cc(F)ccc2-c2ccoc2)C2CC2)c1F [I.27] — the same, 100%
- Cn1nc(C(F)F)c(C(=O)N(Cc2cc(Cl)ccc2-c2ccsc2)C2CC2)c1F [I.66] — the same, 100%
- Cn1nc(C(F)F)c(C(=O)N(Cc2ccccc2-c2ccsc2)C2CC2)c1F [I.67] — the same, 100%
- Cn1nc(C(F)F)c(C(=S)N(Cc2ccccc2-c2cccs2)C2CC2)c1F [I.75] — the same, 100%
- CC1CC1N(Cc1ccccc1-c1ccsc1)C(=O)c1c(C(F)F)nn(C)c1F (centres unmarked) [I.86] — lower, 97%

Test system: not listed separately
Assay: log P by HPLC on a reversed-phase column (C 18), EEC Directive 79/831 Annex V.A8
Format: physicochemical
Conditions: HPLC on reversed-phase column (C 18), 40° C., 0.1% aqueous formic acid and acetonitrile, linear gradient 10% to 90% acetonitrile
How it was run: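 Reversed-phase C18 HPLC at 40° C with a linear 10% to 90% acetonitrile gradient against 0.1% aqueous formic acid. Log P is read from retention time by linear interpolation between successive unbranched alkan-2-ones (C3–C16) of known log P. UV spectra from 200 to 400 nm, taken at chromatographic peak maxima, give lambda-max.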

Point of comparison: `Cn1nc(C(F)F)c(C(=O)N(Cc2cc(F)ccc2-c2ccoc2)C2CC2)c1F` [I.27], logP 3.33. Against it:
- Cc1ccc(C2(C)CO2)c(CN(C(=O)c2c(C(F)F)nn(C)c2F)C2CC2)c1 (centres unmarked) [I.5] — lower, 3.04
- Cn1nc(C(F)F)c(C(=O)N(Cc2cc(F)ccc2C2(C)CO2)C2CC2)c1F (centres unmarked) [I.7] — lower, 2.86
- Cn1ccc(-c2ccc(F)cc2CN(C(=O)c2c(C(F)F)nn(C)c2F)C2CC2)c1 [I.47] — within 0.2 log units, 3.37
- Cn1nc(C(F)F)c(C(=O)N(Cc2cc(Cl)ccc2-c2ccsc2)C2CC2)c1F [I.66] — higher, 3.99
- Cn1nc(C(F)F)c(C(=O)N(Cc2ccccc2-c2ccsc2)C2CC2)c1F [I.67] — higher, 3.55
- Cn1nc(C(F)F)c(C(=S)N(Cc2ccccc2-c2ccsc2)C2CC2)c1F [I.73] — higher, 4.21
- Cn1nc(C(F)F)c(C(=S)N(Cc2ccccc2-c2cccs2)C2CC2)c1F [I.75] — higher, 4.29
- Cn1nc(C(F)F)c(C(=O)N(Cc2cc(-c3cccs3)ccc2Cl)C2CC2)c1F [I.83] — higher, 4.06
- CC1CC1N(Cc1ccccc1-c1ccsc1)C(=O)c1c(C(F)F)nn(C)c1F (centres unmarked) [I.86] — higher, 3.83
- Cn1nc(C(F)F)c(C(=O)N(Cc2cc(-c3ccsc3)ccc2Cl)C2CC2)c1F [I.95] — higher, 3.96
- Cc1ccc(-c2coc3ccccc23)c(CN(C(=O)c2c(C(F)F)nn(C)c2F)C2CC2)c1 [I.134] — higher, 4.32

Test system: Pyrenophora teres
Assay: In vivo preventive test on Pyrenophora teres (barley)
Conditions: 100 ppm of active ingredient; barley plants; 14 days after contamination
Method: In Vivo Preventive Test on Pyrenophora teres (Barley) […] Barley plants (“Plaisant” variety), sown in starter cups on a 50/50 peat soil pozzolana substrate and grown at 22° C., are treated at the 1 leaf stage (10 cm height) by spraying with the active ingredient prepared as described above. Plants, used as controls, are treated with the mixture of acetone/tween/DMSO/water not containing the active material. After 24 hours, the plants are contaminated by spraying the leaves with an aqueous suspension of Pyrenophora teres spores (12 000 spores per mL). The spores are collected from a 12-day-old culture. […] Grading (% of efficacy) is carried out 14 days after the contamination, in comparison with the control plants.

Point of comparison: `Cn1nc(C(F)F)c(C(=O)N(Cc2cc(-c3cccs3)ccc2Cl)C2CC2)c1F` [I.83], Efficacy 86%. Against it:
- Cn1nc(C(F)F)c(C(=O)N(Cc2cc(F)ccc2C2(C)CO2)C2CC2)c1F (centres unmarked) [I.7] — higher, 97%
- Cn1nc(C(F)F)c(C(=O)N(Cc2cc(-c3ccsc3)ccc2Cl)C2CC2)c1F [I.95] — higher, 88%
- Cc1ccc(-c2coc3ccccc23)c(CN(C(=O)c2c(C(F)F)nn(C)c2F)C2CC2)c1 [I.134] — lower, 71%

Same assay, conditions: 500 ppm of active ingredient; barley plants; 14 days after contamination

Point of comparison: `Cc1ccc(C2(C)CO2)c(CN(C(=O)c2c(C(F)F)nn(C)c2F)C2CC2)c1` (centres unmarked) [I.5], Efficacy 93%. Against it:
- Cn1nc(C(F)F)c(C(=O)N(Cc2cc(F)ccc2-c2ccoc2)C2CC2)c1F [I.27] — the same, 93%
- Cn1ccc(-c2ccc(F)cc2CN(C(=O)c2c(C(F)F)nn(C)c2F)C2CC2)c1 [I.47] — lower, 71%
- Cn1nc(C(F)F)c(C(=O)N(Cc2ccccc2-c2ccsc2)C2CC2)c1F [I.67] — lower, 79%
- Cn1nc(C(F)F)c(C(=S)N(Cc2ccccc2-c2ccsc2)C2CC2)c1F [I.73] — lower, 71%
- CC1CC1N(Cc1ccccc1-c1ccsc1)C(=O)c1c(C(F)F)nn(C)c1F (centres unmarked) [I.86] — lower, 79%

Test system: Septoria tritici
Assay: In vivo preventive test on Septoria tritici (wheat)
Conditions: 100 ppm of active ingredient; wheat plants; 24 days after contamination
Method: In Vivo Preventive Test on Septoria tritici (Wheat) […] Wheat plants (“Scipion” variety), sown in starter cups on a 50/50 peat soil pozzolana substrate and grown at 22° C., are treated at the 1 leaf stage (10 cm height) by spraying with the active ingredient prepared as described above. Plants, used as controls, are treated with the mixture of acetone/tween/DMSO/water not containing the active material. After 24 hours, the plants are contaminated by spraying the leaves with an aqueous suspension of cryopreserved Septoria tritici spores (500 000 spores per mL). The contaminated wheat plants are incubated for 72 hours at 18° C. and at 100% relative humidity, and then for 21 days at 90% relative humidity. Grading (% of efficacy) is carried out 24 days after the contamination, in comparison with the control plants.

Point of comparison: `Cn1nc(C(F)F)c(C(=O)N(Cc2cc(F)ccc2C2(C)CO2)C2CC2)c1F` (centres unmarked) [I.7], Efficacy 100%. Against it:
- Cc1ccc(-c2coc3ccccc23)c(CN(C(=O)c2c(C(F)F)nn(C)c2F)C2CC2)c1 [I.134] — lower, 79%

Same assay, conditions: 500 ppm of active ingredient; wheat plants; 24 days after contamination

Point of comparison: `CC1CC1N(Cc1ccccc1-c1ccsc1)C(=O)c1c(C(F)F)nn(C)c1F` (centres unmarked) [I.86], Efficacy 79%. Against it:
- Cc1ccc(C2(C)CO2)c(CN(C(=O)c2c(C(F)F)nn(C)c2F)C2CC2)c1 (centres unmarked) [I.5] — higher, 97%
- Cn1nc(C(F)F)c(C(=O)N(Cc2cc(F)ccc2-c2ccoc2)C2CC2)c1F [I.27] — higher, 80%
- Cn1nc(C(F)F)c(C(=O)N(Cc2ccccc2-c2ccsc2)C2CC2)c1F [I.67] — higher, 97%
- Cn1nc(C(F)F)c(C(=S)N(Cc2ccccc2-c2cccs2)C2CC2)c1F [I.75] — higher, 86%

Test system: Botrytis cinerea
Assay: In vivo preventive test on Botrytis cinerea (grey mould)
Conditions: 500 ppm of active ingredient; gherkin plants; 4 to 5 days after contamination
Method: In Vivo Preventive Test on Botrytis cinerea (Grey Mould) […] Gherkin plants (“Vert petit de Paris” variety), sown in starter cups on a 50/50 peat soil pozzolana substrate and grown at 24° C., are treated at the Z11 cotyledon stage by spraying with the active ingredient prepared as described above. Plants, used as controls, are treated with the mixture of acetone/tween/DMSO/water not containing the active material. After 24 hours, the plants are contaminated by spraying the cotyledons with an aqueous suspension of cryopreserved Botrytis cinerea spores (50 000 spores per mL). The spores are suspended in a nutrient solution composed of 10 g/L of PDB, 50 g/L of D-Fructose, 2 g/L of NH4NO3 and 1 g/L of KH2PO4. The contaminated gherkin plants are incubated at 17° C. and at 90% relative humidity. Grading (% of efficacy) is carried out 4 to 5 days after the contamination, in comparison with the control plants.

Point of comparison: `Cn1nc(C(F)F)c(C(=S)N(Cc2ccccc2-c2ccsc2)C2CC2)c1F` [I.73], Efficacy 100%. Against it:
- Cn1nc(C(F)F)c(C(=O)N(Cc2cc(Cl)ccc2-c2ccsc2)C2CC2)c1F [I.66] — lower, 91%
- Cn1nc(C(F)F)c(C(=S)N(Cc2ccccc2-c2cccs2)C2CC2)c1F [I.75] — the same, 100%

Test system: Puccinia recondita
Assay: In vivo preventive test on Puccinia recondita (brown rust on wheat)
Conditions: 100 ppm of active ingredient; wheat plants; 12 days after contamination
Method: In Vivo Preventive Test on Puccinia recondita (Brown Rust on Wheat) […] Wheat plants (“Scipion” variety), sown in starter cups on a 50/50 peat soil pozzolana substrate and grown at 22° C., are treated at the 1 leaf stage (10 cm height) by spraying with the active ingredient prepared as described above. Plants, used as controls, are treated with the mixture of acetone/tween/DMSO/water not containing the active material. After 24 hours, the plants are contaminated by spraying the leaves with an aqueous suspension of Puccinia recondita spores (100 000 spores per mL). The spores are collected from an infected plant and are suspended in water containing 2.5 mL/L of Tween 80 at 10%. […] Grading (% of efficacy) is carried out 12 days after the contamination, in comparison with the control plants.

Point of comparison: `Cn1nc(C(F)F)c(C(=O)N(Cc2cc(F)ccc2C2(C)CO2)C2CC2)c1F` (centres unmarked) [I.7], Efficacy 100%. Against it:
- Cn1nc(C(F)F)c(C(=O)N(Cc2cc(-c3cccs3)ccc2Cl)C2CC2)c1F [I.83] — lower, 75%

Same assay, conditions: 500 ppm of active ingredient; wheat plants; 12 days after contamination

Point of comparison: `Cc1ccc(C2(C)CO2)c(CN(C(=O)c2c(C(F)F)nn(C)c2F)C2CC2)c1` (centres unmarked) [I.5], Efficacy 98%. Against it:
- Cn1nc(C(F)F)c(C(=O)N(Cc2cc(F)ccc2-c2ccoc2)C2CC2)c1F [I.27] — higher, 100%
- Cn1nc(C(F)F)c(C(=O)N(Cc2cc(Cl)ccc2-c2ccsc2)C2CC2)c1F [I.66] — lower, 94%
- Cn1nc(C(F)F)c(C(=O)N(Cc2ccccc2-c2ccsc2)C2CC2)c1F [I.67] — higher, 100%
- Cn1nc(C(F)F)c(C(=S)N(Cc2ccccc2-c2ccsc2)C2CC2)c1F [I.73] — higher, 100%
- Cn1nc(C(F)F)c(C(=S)N(Cc2ccccc2-c2cccs2)C2CC2)c1F [I.75] — lower, 94%
- CC1CC1N(Cc1ccccc1-c1ccsc1)C(=O)c1c(C(F)F)nn(C)c1F (centres unmarked) [I.86] — the same, 98%
